Counter-ions that a name gives are not always drawn.
Tests used:
cultured astrocytes = assay: RNA-seq of cultured astrocytes compared with MS patient white matter astrocytes (GSE83670); assay type: cell-based, human
Method: Previously, Waller et al. 2016 (J Neuroimmunol 299:139-146) used laser capture microdissection (LCM) to isolate astrocytes from normal appearing white matter in MS patients and CTL subjects (GEO dataset GSE83670; PMID: 27125112).
cDNA sequencing was performed by the University of Michigan sequencing core facility (50 cycle single end Illumina HiSeq 2000). The FASTX-Toolkit was used to filter reads by removing low quality sequences and initial quality assessments were performed using FastQC. Quality-filtered reads were mapped to the human genome (hg38/GRCh38, UCSC) using tophat2 with default settings, except multi-mapping of reads to multiple genome locations was disallowed (settings: -g 1 —no-coverage-search). The hg38/GRCh38 genome is the most recent release available from UCSC. HTSeq was used to tabulate the number of reads mapping to each genome feature and Cufflinks was used to calculate FPKM estimates and associated confidence intervals. RSeQC was used to assess quality of mapping and calculate the percentage of mapped reads. The negative binomial model (edgeR) was used to evaluate differential expression, with read counts normalized using the weighted trimmed mean of M-values method, and dispersions estimated using the Cox-Reid (CR)-adjusted likelihood approach. Differential expression analyses were performed using genes with detectable expression in at least 1 of 4 samples involved in a given comparison. A gene was considered to have detectable expression in a sample if the count per million mapped reads (cpm) estimate was greater than 0.20 and if the lower bound of the FPKM 95% confidence interval was greater than zero.
FIG. 3 presents in scatterplot and histogram format the results of the study on the astrocytes. Scatterplots (A) and (D) compare fold change (FC) estimates in DMF-treated (A) and IDMF-treated (D) astrocytes to LCM-dissected astrocytes in MS patients and healthy controls (CTLs). Each point represents a protein-coding gene and the light colored ellipses outline the 90% of genes closest to the bivariate mean based upon the Mahalanobis distance. The Spearman rank correlation coefficient estimate is shown (upper-left). The proportion of genes within each quadrant is indicated in the upper margin (P<0.05, Fisher's exact test), wherein the quadrants are defined by a vertical and horizontal line through the “1” in each axis with the proportion corresponding, left to right to the upper left, the upper right, the lower right and lower left quadrants, respectively. Gene set overlap is presented in (B), (C), (E) and (F) wherein genes within each set were altered with a P<0.05 threshold. P-values from the test of overlap significance are shown (bottom margin, Fisher's exact test). […]

[1] = tested on: NRF2 (NF-E2-related factor 2) transcription factor; assay: Cignal ARE Reporter Assay, NRF2-mediated luciferase gene expression in HEK293 cells; assay type: cell-based; details: HEK293, 24 h
Method: 2017 December; 23(14):1875-1883. doi: 10.1177/1352458517690617. Epub 2017 Feb.
The experiments were performed using HEK293 cells (Sigma, St. Louis, Mo.; cat. #85120602) seeded at 50,000 per well in a 96 well white opaque-wall tissue culture plates. Cells were transfected by mixing Cignal Reporter Assay firefly/renilla luciferase constructs (cat. # CCS-5020L; Qiagen) with Attractene Transfection Reagent (Qiagen) in Opti-MEM (ThermoFisher Scientific, Waltham, Mass.) supplemented with 1% MEM Non-essential amino acid solution without L-glutamine (Sigma; cat. #M7145). After medium change test materials were added and their effect on NRF2 induction was quantified 24 h later with the Dual-Luciferase Reporter Assay System (cat. #E1960; Promega, Madison, Wis.).
The ARE (antioxidant response element) reporter is a mixture of a Nrf2-responsive luciferase construct encoding the firefly luciferase reporter gene under the control of a minimal (m)CMV promoter and tandem repeats of the ARE transcriptional response element, and a constitutively expressing Renilla element (40:1), which acts as an internal control for normalizing transfection efficiencies and monitoring cell viability. […] Signal quantification was obtained with ThermoFisher Scientific Luminoskan Ascent Microplate Luminometer.

[2] = target: T1, carboxylesterase 2 (CES2) (Homo sapiens, UniProt O00748); assay: Carboxylesterase hydrolysis IDMF v DMF; assay type: in vitro ADME; details: for remaining parent compound: 1 mg/ml CES2, 37° C., pH 7.4
T1 sequence (O00748 27-559): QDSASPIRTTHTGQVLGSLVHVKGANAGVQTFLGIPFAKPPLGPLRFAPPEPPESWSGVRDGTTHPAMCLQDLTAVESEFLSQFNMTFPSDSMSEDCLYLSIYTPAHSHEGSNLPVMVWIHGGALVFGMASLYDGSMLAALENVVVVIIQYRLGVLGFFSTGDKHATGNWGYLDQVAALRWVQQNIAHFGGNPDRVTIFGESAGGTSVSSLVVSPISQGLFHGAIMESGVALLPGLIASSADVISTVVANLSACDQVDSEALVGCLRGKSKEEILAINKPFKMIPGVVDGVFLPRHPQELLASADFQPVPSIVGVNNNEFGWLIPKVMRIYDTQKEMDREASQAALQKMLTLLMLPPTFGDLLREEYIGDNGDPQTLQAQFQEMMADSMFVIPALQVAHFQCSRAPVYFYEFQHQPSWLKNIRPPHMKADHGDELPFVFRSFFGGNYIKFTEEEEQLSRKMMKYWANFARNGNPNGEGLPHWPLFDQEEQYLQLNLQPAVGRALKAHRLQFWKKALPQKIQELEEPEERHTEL
Method: IDMF and DMF were subjected to carboxylesterase hydrolysis. […] 1 mg/ml carboxylesterase 2 (CES2) was added to each solution and the solutions incubated at 37° C. for the time periods set forth in Table 5. […] Isosorbide was quantified using CAD. Mobile phase used for the study: 0.1% Formic acid in water; B: Methanol. Column: Luna C18 4.6 mm×100 mm, 5 u (Phenomenex). Flow rate: 1.0 ml/min.

[3] = target: T1, carboxylesterase 2 (CES2); assay: Carboxylesterase hydrolysis IDMF v DRF; assay type: in vitro ADME; details: 20 μl of 1 mg/ml CES2, 37° C., pH 7.4
Method: 20 μl of 1 mg/ml carboxylesterase 2 (CES2) was added to each solution and the solutions incubated at 37° C. for the time periods set forth in Table 5. […] Although tolerable for normal patients, HES is undesirable and detrimental for those individuals have kidney and/or liver issues

number of genes decreased by IDMF (P<0.05) and increased in MS (P<0.05) (cultured astrocytes): 82 genes
remaining parent compound ([2]; 0 minutes): 1.027 mM
remaining parent compound ([2]; 15 minutes): 0.072 mM
time by which essentially all is hydrolyzed ([2]; CES2, 37° C.): ≤ 15 min
remaining parent compound ([3]; 0 minutes): 1.086 mM
remaining parent compound ([3]; 15 minutes): 0.113 mM
Compound: COC(=O)/C=C/C(=O)O[C@H]1CO[C@H]2[C@@H]1OC[C@H]2OC(=O)/C=C/C(=O)OC [IDMF, isosorbide di-(methyl fumarate)]
protein-coding genes increased by IDMF (FC>1.00) but decreased in MS patients (FC<1.00) (cultured astrocytes): 35.08%
correlation of genome-wide expression responses with those observed in MS patients (Spearman r) (cultured astrocytes; cultured astrocytes vs. LCM-dissected MS patient astrocytes): negatively correlated
Fold Change v. water control (1), NRF2-mediated luciferase gene expression ([1]; 1 μg/ml): 2.78 fold
Fold Change v. water control (1), NRF2-mediated luciferase gene expression ([1]; 10 μg/ml): 4.61 fold
